The values below come from PubChem BioAssay AID1996.

In brackets after ≈: the same amount, converted by molar mass. Non-standard residues stand in square brackets, D forms with d. Residues, ends and D or L forms follow the SMILES beside them. ξ: configuration not given here. *: point of attachment. Tos = Cc1ccc(S(=O)(=O)*)cc1; ξP = O=C(O)C1CCCN1

For this series the following is noted: buffer; pH 7.4; 200.0 µM.
Compound `CC1CCCN(S(=O)(=O)c2cnc[nH]2)C1` (centres undefined) showed a solubility (kinetic) of more than 34.4 µg/mL.
The compound `Cc1ccc(S(=O)(=O)N2CCC3(CC2)OCCO3)s1` registered a solubility (kinetic) of more than 45.5 µg/mL.
The compound `CC(CN1CCCC1)OC(=O)Cc1ccc(Cl)cc1.Cl` (centres undefined) registered a solubility (kinetic) of more than 47.7 µg/mL.
Regarding `Cc1ccc(S(=O)(=O)N2CCOCC2)cc1C(=O)N1CCc2ccccc21`, the solubility (kinetic) is 54.3 µg/mL (≈ 141 µM).
In the case of `Nc1ccccc1-c1nnc(SCC(=O)Nc2ccccc2OC(F)F)[nH]c1=O`, the solubility (kinetic) was more than 62.9 µg/mL.
Take `CCOC(=O)c1sc(NC(=O)CC(C)c2ccccc2)nc1C` (centres undefined): the solubility (kinetic) is less than 0.4 µg/mL.
As for `CCN=c1sc(C(=O)Nc2ccccc2)c(C)n1CC`, the solubility (kinetic) is 43 µg/mL (≈ 149 µM).
The compound `CC(=O)N(Cc1ccc(Cl)cc1)c1cnccn1` showed a kinetic solubility of more than 39.3 µg/mL.
The compound `O=C(Nc1ccc(CN2CCS(=O)(=O)CC2)cc1)c1ccccc1` came in with a solubility (kinetic) of 31.4 µg/mL (≈ 91.2 µM).
The figure for `COc1cccc2c(Nc3ccccc3C)cc(C)nc12.Cl` is 40.1 µg/mL.
Take `O=C(COc1ccc(-n2ccnc2)cc1)Nc1cccc(Cl)c1`: the kinetic solubility came out at 23.7 µg/mL (≈ 72.3 µM).
The figure for `Cc1cccc(Cl)c1NC(=S)NCCc1ccccn1` is more than 45.9 µg/mL.
`O=S(=O)(NCc1ccc2c(c1)OCO2)c1ccc(F)cc1` displayed a kinetic solubility of more than 46.4 µg/mL.
`COc1ccc(S(=O)(=O)n2cnc3ccccc32)c(C)c1`: the solubility (kinetic) came out at 17 µg/mL (≈ 56.2 µM).
Regarding `CCC(C)(C)NC(=S)Nc1ccccc1C`, the kinetic solubility is more than 35.5 µg/mL.
For the compound `N#Cc1ccc(Cl)cc1NC(=O)CSc1cccc[n+]1[O-]`, the solubility (kinetic) was more than 48 µg/mL.
The same measure for `CN1C(=O)C(CCC(=O)O)NC1=S` (centres undefined): 28.2 µg/mL (≈ 139 µM).
`COc1cccc(CN(C)C(=O)CCN=C2NS(=O)(=O)c3ccccc32)c1`: the kinetic solubility is more than 58.1 µg/mL.
The figure for `Cc1ccsc1C1C(C#N)=C(N)N(N(C)C)C2=C1C(=O)CCC2` (centres undefined) is more than 49.3 µg/mL; for `CCOC(=O)C1CCCN(/C=C2\SC(=S)N(CC)C2=O)C1` (centres undefined) it is 39.4 µg/mL (≈ 120 µM).
The same measure for `CCOc1ccc(N2CC(C(=O)N3CCCCC3)CC2=O)cc1` (centres undefined): 46.4 µg/mL (≈ 147 µM).
Compound `CN(CCOc1ccc(F)cc1)Cc1ccccc1.O=C(O)C(=O)O` had a kinetic solubility of 34.6 µg/mL. This solubility kinetic and that of the compound before are within 1.5-fold of each other.
In turn, `COc1cccc(OC)c1OC(=O)C1CC(=O)N(c2ccc3c(c2)OCCO3)C1` (centres undefined) came in with a kinetic solubility of more than 59.9 µg/mL.
`Cc1ccc(S(=O)(=O)NCC(=O)N2CCCC2C(=O)O)cc1` (stereo not drawn) (Tos-Gly-[ξP]-OH): the solubility (kinetic) is more than 49 µg/mL.
The same measure for `COc1ccccc1C(=O)NCCC(=O)Nc1cccnc1`: more than 44.9 µg/mL.
Consider `CCOc1ccc(CNc2nc3ccccc3n2C)cc1`, for which the solubility (kinetic) is more than 42.2 µg/mL.
As for `COc1ccccc1C(=O)OCC(=O)Nc1ccc(Cl)cn1`, the solubility (kinetic) was 5.1 µg/mL (≈ 15.9 µM).
Compound `CCOC(=O)C1CCCN(C(=O)COc2ccc(C(=O)c3ccc(F)cc3)cc2)C1` (centres undefined) showed a solubility (kinetic) of more than 62 µg/mL.
The figure for `COc1cc(/C=C/C(=O)NCC2CCCCC2)cc(OC)c1OC` is less than 0.7 µg/mL.
`NS(=O)(=O)c1cccc(NC(=O)COC(=O)CCC2CCCC2)c1`: the kinetic solubility is more than 53.2 µg/mL.
On to `Cc1ccc(C(=O)Nc2ccc(N3CCN(C)CC3)cc2)c(Cl)c1`, for which the kinetic solubility is more than 51.6 µg/mL.
The figure for `C=CCn1c(P(C)(=O)[O-])nc2ccccc21.[K+]` is more than 41.1 µg/mL.
As to `O=[N+]([O-])c1ccc(Cl)cc1NCC1CCCO1` (centres undefined), the solubility (kinetic) turned out to be 28 µg/mL (≈ 109 µM).
The same measure for `O=C(COc1ccccc1)Nc1ccc(NC(=O)c2ccco2)cc1`: 2.6 µg/mL (≈ 7.73 µM); for `Cc1cccc(-n2cnc(C(=O)N3CCN(C)CC3)c2)n1`: more than 42.8 µg/mL; for `O=[N+]([O-])c1cccc(-c2noc(-c3cccs3)n2)c1`: less than 0.2 µg/mL.
Consider `O=C(NCc1cccnc1)C(=O)Nc1nccs1`, for which the kinetic solubility worked out at 20.4 µg/mL (≈ 77.8 µM).
`CN(C)CCCNc1nc(-c2ccc(Cl)cc2)nc2ccccc12` displayed a kinetic solubility of 41.7 µg/mL (≈ 122 µM).
Turning to `CN(CC1COc2ccccc2O1)C(=O)Cn1cc(C(F)(F)F)ccc1=O` (centres undefined), the solubility (kinetic) is more than 57.4 µg/mL.
The same measure for `COCC(C)NC(C(=O)Nc1cccc(C(C)=O)c1)c1ccccc1` (centres undefined): more than 51.1 µg/mL; for `Cc1cn(S(=O)(=O)c2ccc(Cl)cc2)c(C)n1`: 8.6 µg/mL (≈ 31.8 µM).
Compound `CC/C(C)=N/Oc1nc(C)cc(C)n1` showed a solubility (kinetic) of 28.5 µg/mL (≈ 147 µM).
The same measure for `CSc1ncccc1C(=O)OC(C)C(=O)Nc1cccc(S(=O)(=O)N2CCOCC2)c1` (centres undefined): 8.4 µg/mL (≈ 18 µM); for `COC(=O)c1ccccc1Oc1ccc(NC(=O)CCCl)cc1`: more than 50.1 µg/mL; for `COc1cccc(NC(=O)C2(S(=O)(=O)c3ccc(Cl)cc3)CC2)c1`: 33.1 µg/mL (≈ 90.5 µM).
The same measure for `CCOc1ccc(Nc2nc3c(C)cccc3cc2C#N)cc1`: less than 0.2 µg/mL.
Take `O=[N+]([O-])c1ccc(N=Cc2c(O)ccc3ccccc23)cc1`: the solubility (kinetic) came to 30.5 µg/mL (≈ 104 µM).
`COc1ccccc1C(=O)CC(=O)C(=O)Nc1cccc([N+](=O)[O-])c1C` came in with a kinetic solubility of 15.5 µg/mL (≈ 43.5 µM).
The figure for `CS(=O)(=O)N1c2cccc3cccc(c23)S1(=O)=O` is 7.7 µg/mL (≈ 27.2 µM); for `CN(Cc1c(F)cccc1Cl)C(=O)c1cnc2ccccc2n1` it is 38.3 µg/mL (≈ 116 µM); for `CN(CC(=O)NCc1ccco1)S(=O)(=O)c1ccc(F)cc1` it is more than 49 µg/mL.
In turn, `Nc1ncnc(Nc2cccc(F)c2)n1` registered a kinetic solubility of 30.6 µg/mL (≈ 149 µM).
For `N#Cc1ccc(Cn2c(-c3ccc(F)cc3)noc2=O)cc1`, the kinetic solubility is 37.6 µg/mL (≈ 127 µM). This solubility kinetic and that of the compound before are within 1.5-fold of each other.
In turn, `CCOC(=O)c1c(C)[nH]c(C(=O)COC(=O)c2cc(C)oc2C)c1C` displayed a solubility (kinetic) of 3 µg/mL (≈ 8.64 µM). Compared with the last compound, the solubility kinetic is about 13-fold lower.
The same measure for `COc1ccccc1NC(=O)COC(=O)c1ccc([N+](=O)[O-])s1`: 5.1 µg/mL (≈ 15.2 µM).
The figure for `CCn1ccnc1CN1CCCC(C(=O)c2ccc(OC)cc2OC)C1` (centres undefined) is 48.7 µg/mL (≈ 136 µM); for `COc1cccc(CSc2nccn2C)c1` it is more than 35.1 µg/mL; for `NC(=O)C1CCN(C(=O)c2ccccc2CCc2ccccc2)CC1` it is more than 50.5 µg/mL.
The figure for `CC1CCN(C(=O)COC(=O)c2ccc(Cl)nc2)CC1` is more than 44.5 µg/mL.
The compound `COc1cccc(CN2CCNCC2)c1OC` yielded a solubility (kinetic) of 20.3 µg/mL (≈ 85.9 µM).
With `Cc1c(Cl)cccc1NC(=O)CNC(=O)c1ccco1`, the solubility (kinetic) is 38.2 µg/mL (≈ 130 µM).
The same measure for `O=C(Nc1ccc2ccccc2c1)c1cc(F)c(F)cc1Cl`: less than 0.7 µg/mL; for `Cc1ccc(C(=O)Nc2ccc(NC(=O)c3ccco3)c(C)c2)cc1`: 2.8 µg/mL (≈ 8.37 µM); for `CCOC(=O)Cc1cc(C)[nH]c1C(=O)OCC`: 34.7 µg/mL (≈ 145 µM).
`NS(=O)(=O)c1ccc(CNC(=O)CSc2nc3ccc(Cl)cc3[nH]2)cc1` gave a solubility (kinetic) of 10.3 µg/mL (≈ 25.1 µM).
The same measure for `CCN(Cc1ccccc1)C(=O)COc1ccccc1`: more than 40.4 µg/mL.
The same measure for `Cc1ccccc1NC(=O)C(=O)NCCCN1CCOCC1`: more than 45.8 µg/mL; for `Cc1cc(Cl)ccc1NC(=S)NCc1ccc(F)cc1`: 2.8 µg/mL (≈ 9.07 µM).
With `O=C(Nc1ccc(OC(F)(F)F)cc1)c1ccc2c(c1)no[n+]2[O-]`, the solubility (kinetic) turned out to be 1.1 µg/mL (≈ 3.24 µM).
The same measure for `O=C1NCC(COc2ccc([N+](=O)[O-])cc2)O1` (centres undefined): 34.1 µg/mL (≈ 143 µM).
As to `COc1ccc(C(=O)C2CCCN(CCO)C2)c(C)c1` (centres undefined), the kinetic solubility came out at 30.3 µg/mL (≈ 109 µM).
The figure for `CN(C)C(=O)c1cc(C(=O)c2ccc(F)cc2C(F)(F)F)c[nH]1` is 12.6 µg/mL (≈ 38.4 µM).
The same measure for `Cc1cc(C)cc(Nc2nc3ccccc3c(=O)[nH]2)c1`: 0.2 µg/mL (≈ 0.754 µM).
The same measure for `O=C1CN(S(=O)(=O)c2ccccc2C(F)(F)F)CCN1`: 40.3 µg/mL (≈ 131 µM).
